Results: US4727090A, “Process for preparing and therapeutical applications of the 2,4,6-triiodophenol” (Bislak, S.A., priority 1983, dated 1988)
Like-named read-outs stand apart in the source and are kept apart here.

Columns and labels:
[1] = tested on: acetic acid induced pullings; assay: Writhing syndrome test (acetic acid); type: in vivo, mice; details: 500 mg/kg oral; for inhibition at 500 mg/kg: Mus musculus, po, read-out: % INHIB. (pullings)
Description: Irritant substance: acetic acid at 0.5% injected via intraperitoneal.
Foundation of the method consists in provoking a dolorous syndrome by pulling and torsion of the stomach and the hind legs of the animals.
These pullings or stretchings are calculated during a certain time, using it as the measure of the provoked ache.
Mice of about 22 g by weight were used, animals were left under abstinence during 24 hours before carrying out the test.
Mice were previously selected as to each individual response to the dolorous stimulus provoked by an intraperitoneal injection of 0.2 ml of an acetic acid aqueous solution at the 0.5%. Valid animals for realizing the test are those which respond within a margin of 15-35 pullings in about 5 to 15 minutes after the injection. The remaining animals are not useful.
Medication is realized via oral with the help of an esophageal cannula.
White lot: Administration of 0.1 ml of CMC 1% for each 10 g of corporal weight.
2,4,6-triiodophenol lot: Administration of 10 mg/kg of the product, suspended in CMC of 1%.
Aspirin-Lysin lot (Solusprin): Administration of 500 mg/kg aspirin, dissolved at 1%.
After medication, one has to wait 20 minutes for injecting 0.2 ml acetic acid of 0.5% via intraperitoneal, calculating the number of pullings during 5 minutes. […]
The test was carried out in 9 mice in each lot.

[2] = tested on: sensation of pain on hot plate; assay: Hot plate test at 56° C; type: in vivo, mice; details: 500 mg/kg injection
Description: (A) To control analgesic activity we use mice of about 25 g by weight, in groups of ten mice, subjected to the test of the hot plate at 56° C.
Animals receive a medicamentous injection of 0.1 ml of solubilized aspirin with sodium bicarbonate, or of solubilized triiodophenol at pH 9'5.
Controls receive physiologic serum.
The time in which the animals indicate sensation of pain is measured with a chronometer.
In the hereunder table the results testing animals, 15 min. and 30 min. after the medication. Average values are taken of each group.

[3] = tested on: granuloma formed around cotton implant; assay: Cotton implant granuloma test; type: in vivo, rats; details: 72 hours
Description: (B) To a group of 10 rats of about 200-225 g is implanted at the dorsal zone, subcutaneously, balled cotton (about 9 mg) impregnated and afterwards dried with a solution of medicamentous substance and which amount is known.
We use as reference Dexamethasone and controls without medicament.
After 72 hours, once the animal is sacrificed, the granuloma formed around the implant is extracted and weighed, after drying at 100° C.
The antiinflammatory reduces the weight of the granuloma.

Carrageenin leg oedema [4] = assay: Carrageenin leg oedema test; type: in vivo, white rats; details: Rattus norvegicus, 10 mg/kg oral
Carrageenin leg oedema [5] = assay: Carrageenin leg oedema test; type: in vivo, white rats; details: Rattus norvegicus; 10 mg/kg oral, 4 hours
Description: (A) The antiinflammatory action is shown in white rats, of a weight of about 200-225 g, having provoked in these animals the leg oedema by means of an injection in the sole of the foot of 0.1 ml of a 1% Carrageenin solution.
One control group of ten animals, another the same medicated with indomethacin via oral at 30 mg/kg, in suspension in a carboxymethylcellulose solution, another group of ten rats, medicated with triiodophenol in oral solution at 5 mg/kg, another group medicated with triioodophenol at 1 mg/kg, injected via intramuscular and another group medicated with triiodophenol at 0.5 mg/kg via intramuscular. All medications are administered simultaneously to the formation of Edema.
The volume of the same is measured at 0 hours, 3 hours, 4 hours, 5 hours and 6 hours with a mercury Plestimograph.

In the case of CC(=O)Oc1ccccc1C(=O)O [ASPIRIN, reference compound], the “Total No. pullings” value ([1]; 20') is reported as 12, the “Total No. pullings” value ([1]; 30') is reported as 6 and the “Total No. pullings” value ([1]; 100') is reported as 6. For the same compound, the inhibition at 500 mg/kg ([1]; 20') was 90% and the inhibition at 500 mg/kg ([1]; 30') was 89.2%.
In the case of CC(=O)Oc1ccccc1C(=O)O [Acetyl salicylic acid, reference compound], the “Time to sensation of pain” value ([2]; 15 minutes) is reported as 4,3 sec and the “Time to sensation of pain” value ([2]; 30 minutes) is reported as 6,8 sec.
In the case of C[C@@H]1C[C@H]2[C@@H]3CCC4=CC(=O)C=C[C@]4(C)[C@@]3(F)[C@@H](O)C[C@]2(C)[C@@]1(O)C(=O)CO [Dexamethansone, reference compound], the “% Reduction of the granuloma (Average)” value ([3]; 10 micrograms per implant) is reported as 16%, the “% Reduction of the granuloma (Average)” value ([3]; 20 micrograms per implant) is reported as 28% and the “% Reduction of the granuloma (Average)” value ([3]; 40 micrograms per implant) is reported as 30%.
COc1ccc2c(c1)c(CC(=O)O)c(C)n2C(=O)c1ccc(Cl)cc1 [Indomethacin] gave an inhibition at 10 mg/kg (Carrageenin leg oedema [4]; 3 hours) of 59%, an inhibition at 10 mg/kg (Carrageenin leg oedema [4]; 5 hours) of 69% and an inhibition at 10 mg/kg (Carrageenin leg oedema [4]; 6 hours) of 73%. For the same compound, the inhibition at 10 mg/kg (Carrageenin leg oedema [5]) was 63%.
